Assay results: ChEMBL document CHEMBL1128542, “Synthesis and antiviral activity of benzyl-substituted imidazo [1,5-a]-1,3,5-triazine (5,8-diaza-7,9-dideazapurine) derivatives” (J Med Chem, 1995)

How the values were obtained:
[1] = Minimum toxic concentration required to cause a microscopically detectable alteration of normal HeLa cell morphology; assay type: toxicity, cell-based; conditions: human, HeLa cells; read-out: MTC
[2] = Minimum toxic concentration required to cause a microscopically detectable alteration of normal MDCK cell morphology; assay type: toxicity, cell-based, Canis lupus familiaris; conditions: dog, MDCK cells; read-out: MTC
MDCK [3] = assay: Inhibitory concentration against influenza virus A in MDCK cells; assay type: functional, cell-based; conditions: Canis lupus familiaris
[4] = Minimum toxic concentration required to cause a microscopically detectable alteration of normal vero cell morphology; assay type: toxicity, cell-based; conditions: chlorocebus sabaeus, Vero cells; read-out: MTC
CCRF-CEM = assay: Cytotoxic concentration required to inhibit CEM cell proliferation by 50%.; assay type: functional; conditions: Homo sapiens
MDCK [5] = assay: Inhibitory concentration against influenza virus B in MDCK cells; assay type: functional, cell-based; conditions: Canis lupus familiaris
HeLa = assay: Inhibitory concentration against respiratory syncytial virus in HeLa cells; assay type: functional, cell-based; conditions: Homo sapiens
Vero = assay: Inhibitory concentration against parainfluenza-3 virus in vero cells; assay type: functional, cell-based; conditions: Chlorocebus sabaeus

Row | SMILES | MCC [1] [µM] | MCC [2] [µM] | IC50 (MDCK [3]) [µM] | MCC [4] [µM] | CC50 (CCRF-CEM) [µM] | IC50 (MDCK [5]) [µM] | IC50 (HeLa) [µM] | IC50 (Vero) [µM]
1 | Cc1ccc(CSc2ncnc3c(Cc4ccc(C)cc4)ncn23)cc1 | 278 | 278 | > 278 | 278 | > 111 | > 278 | > 278 | > 278
2 | O=c1[nH]c(=S)[nH]c2c(CCCCCOCc3ccccc3)ncn12 | 87.2 | 291 | 174 |  | 259 | > 291 | 23.2 | 
3 | Cc1ncn2c(S)ncnc12 | 602 | 602 | 181 | 602 | 789 | 241 | > 602 | > 602
4 | Cc1nc(C)n2c(S)ncnc12 | 556 | > 1110 | 222 | 556 | > 694 | 833 | > 556 | > 556
5 | Cc1nc(C)n2c1NC=NC2N (stereo not given) | > 1100 | > 1100 | > 1100 | > 1100 | 115 | > 1100 | > 1100 | > 1100
6 | Cc1ccc(Cc2ncn3c(=O)[nH]c(=S)[nH]c23)cc1 | > 735 | > 735 | 54.4 | > 735 | > 735 | > 551 | 257 | > 735
7 | Cc1ncn2c1NC=NC2N (stereo not given) | > 1340 | > 1340 | > 1340 | 671 | 746 | > 1340 | > 1340 | > 671
8 | Cc1ccc(CSC2NC(=O)n3c(C)nc(C)c3N2)cc1 (stereo not given) | 328 | 328 | 65.6 | 328 | 88.8 | > 328 | 15.7 | > 131
9 | Cc1ccc(Cc2ncn3c(O)ncnc23)cc1 | > 833 | > 833 | > 833 | 625 | > 833 | > 833 | > 833 | > 833
10 | CN(C)c1ncnc2c(Cc3ccccc3)ncn12 | > 790 | > 790 | > 790 | > 790 | > 790 | > 790 | 395 | > 790
11 | CSC1N=CNc2c(C)nc(C)n21 (stereo not given) | 515 | 515 | 103 | 515 | 440 | 103 | > 515 | > 515
12 | Cc1ccc(Cc2ncn3c(N(C)C)ncnc23)cc1 | > 749 | > 749 | > 749 | 374 | 412 | > 749 | > 749 | > 374
13 | O=c1[nH]c(=S)[nH]c2c(Cc3ccccc3)ncn12 | > 775 | > 775 | 54.2 | 581 | 430 | > 581 | > 775 | > 775
14 | CSC1NC(=O)n2cnc(CCCCCOCc3ccccc3)c2N1 (stereo not given) | 11.1 | 55.8 | 11.1 | > 112 | > 120 | 55.8 | 2.2 | > 27.9
